Source: patent US20240000950A1, “THERAPEUTIC CURE-PRO COMPOUNDS FOR TARGETED DEGRADATION OF BET DOMAIN PROTEINS, AND METHODS OF MAKING AND USING THEM” (CORNELL UNIVERSITY, priority 2020, published 2024)

Target: BRD4 (Homo sapiens, UniProt O60885)
Assay: Summary of E3 ligase directed degradation of BRD4, estimated from Western Blot or WES (Tables 1-6)
Assay type: cell-based
Design: endogenous in cells; host or cells: HeLa, MCF7 or HCT116
Conditions: for Degradation of BRD4, combination with VHL ligand [drawing 442]: aromatic 1,2-diol-containing VHL ligand drawn as drawing 442 (by the text apparently 8305); for Degradation of BRD4, combination with CRBN ligand [drawing 421] / Degradation of BRD4, combination with CRBN ligand [drawing 422] / Degradation of BRD4, combination with CRBN ligand [drawing 397]: Table 1; for Degradation of BRD4, combination with CRBN ligand [drawing 421]: CRBN ligand drawn as drawing 421 (by the text apparently 8047); for Degradation of BRD4, combination with CRBN ligand [drawing 422]: CRBN ligand drawn as drawing 422 (by the text apparently 8066); for Degradation of BRD4, combination with CRBN ligand [drawing 397]: aromatic 1,2-diol- or hindered cis-1,2-diol-containing CRBN ligand drawn as drawing 397 (by the text apparently 8046); for Degradation of BRD4, combination with MDM2 ligand [drawing 431]: Table 2, aromatic 1,2-diol-containing MDM2 ligand drawn as drawing 431 (by the text apparently 8314); for Degradation of BRD4, combination with CRBN ligand [drawing 457]: Table 4, aryl-boronic acid-containing CRBN ligand drawn as drawing 457 (by the text apparently 8048)
Description: HeLa, MCF7, or HCT116 cells (2.5-3×10^6) were treated for 24 hours with the indicated compounds solubilized in DMSO. The cells were washed in ice-cold PBS and were then lysed in RIPA lysis buffer (150 mM NaCl, 5 mM EDTA, 1% NP-40, 0.5% sodium deoxycholate, 0.1% SDS, 50 mM Tris, pH 8.0) with Roche protease inhibitor complete cocktail and phosphatase inhibitors (10 mM sodium fluoride, 10 mM sodium pyrophosphate, 1 mM sodium orthovanadate and 20 mM β-glycerophosphate). The total protein concentrations were determined by Bradford Protein Assay and 10-20 μg of protein was loaded onto 4-15% Tris-Glycine gradient gels (Biorad). After standard gel electrophoresis, the separated proteins were transferred to PVDF membrane by wet transfer. The immunoblots were then blocked for 1 hour in 5% skim milk in TBST or 5% BSA in TBST, according to manufacturer's instructions, before an overnight incubation at 4° C. with indicated antibodies and membranes. Membranes were then incubated with the appropriate horseradish peroxidase-conjugated secondary antibodies (1:5,000 dilution) for 1 h at room temperature and the bands were visualized using the Clarity Max Western ECL Substrate (Biorad) and the ChemiDoc Imaging System (Biorad). Signal was detected with ECL Western Blotting Substrate (Pierce) and X-ray film processed with a Konica SRX-101 X-ray film processor or captured by Bio-Rad's Chemidoc Imaging system.
WES Simple analysis was performed on WES system (ProteinSimple-Biotechne) according to the manufacturer's instructions. Total protein concentrations of cell lysates were determined by the Pierce BCA kit (Thermo Fisher). 3 μL of 0.3 μg/uL of the protein lysate was loaded onto a 12- to 230-kDa WES assay plate (ProteinSimple) where 300 nL sample was withdrawn through a capillary, subjected to electrophoretic separation of proteins by size, and followed by the simultaneous, HRP-based detection of proteins using the Anti-Rabbit Detection Module (Proteinsimple: #DM-001). The electropherograms were checked then the automatic peak detection was manually corrected if it was required.
A black check mark indicates efficacy of 30% to 70% or higher protein degradation.

SMILES: COc1ccc2c(c1)C(c1ccc(Cl)cc1)=N[C@@H](CC(=O)NCCNC(=O)c1cccc(B(O)O)c1)c1nnc(C)n1-2 [BRD-E02]
- Degradation of BRD4, combination with VHL ligand [drawing 442] (Table 3): ✓ (A black check mark indicates efficacy of 30% to 70% or higher protein degradation)

SMILES: COc1ccc2c(c1)C(c1ccc(Cl)cc1)=N[C@@H](CC(=O)NCCCNC(=O)c1cccc(B(O)O)c1)c1nnc(C)n1-2 [BRD-E04]
- Degradation of BRD4, combination with CRBN ligand [drawing 421]: ✓ (A black check mark indicates efficacy of 30% to 70% or higher protein degradation)
- Degradation of BRD4, combination with CRBN ligand [drawing 422]: ✓ (A black check mark indicates efficacy of 30% to 70% or higher protein degradation)
- Degradation of BRD4, combination with CRBN ligand [drawing 397]: ✓ (A black check mark indicates efficacy of 30% to 70% or higher protein degradation)

SMILES: COc1ccc2c(c1)C(c1ccc(Cl)cc1)=N[C@@H](CC(=O)NCCCCNC(=O)c1ccc(B(O)O)cc1)c1nnc(C)n1-2 [BRD-E05]
- Degradation of BRD4, combination with CRBN ligand [drawing 421]: ✓ (A black check mark indicates efficacy of 30% to 70% or higher protein degradation)
- Degradation of BRD4, combination with CRBN ligand [drawing 422]: ✓ (A black check mark indicates efficacy of 30% to 70% or higher protein degradation)

SMILES: COc1ccc2c(c1)C(c1ccc(Cl)cc1)=N[C@@H](CC(=O)NCCCCCNC(=O)c1ccc(B(O)O)cc1)c1nnc(C)n1-2 [BRD-E07]
- Degradation of BRD4, combination with CRBN ligand [drawing 422]: ✓ (A black check mark indicates efficacy of 30% to 70% or higher protein degradation)

SMILES: COc1ccc2c(c1)C(c1ccc(Cl)cc1)=N[C@@H](CC(=O)NCc1ccc(B(O)O)cc1)c1nnc(C)n1-2 [BRD-E09, (4-((2-((4S)-6-(4-chlorophenyl)-8-methoxy-1-methyl-4H-benzo[f][1,2,4]triazolo[4,3-a][1,4]diazepin-4-yl)acetamido)methyl)phenyl)boronic acid]
- Degradation of BRD4, combination with CRBN ligand [drawing 421]: ✓ (A black check mark indicates efficacy of 30% to 70% or higher protein degradation)
- Degradation of BRD4, combination with VHL ligand [drawing 442] (Table 3): ✓ (A black check mark indicates efficacy of 30% to 70% or higher protein degradation)

SMILES: COc1ccc2c(c1)C(c1ccc(Cl)cc1)=N[C@@H](CC(=O)NCc1cccc(B(O)O)c1)c1nnc(C)n1-2 [BRD-E10]
- Degradation of BRD4, combination with CRBN ligand [drawing 421]: ✓ (A black check mark indicates efficacy of 30% to 70% or higher protein degradation)
- Degradation of BRD4, combination with CRBN ligand [drawing 397]: ✓ (A black check mark indicates efficacy of 30% to 70% or higher protein degradation)
- Degradation of BRD4, combination with VHL ligand [drawing 441] (Table 3, aromatic 1,2-diol-containing VHL ligand drawn as drawing 441 (by the text apparently 8304)): ✓ (A black check mark indicates efficacy of 30% to 70% or higher protein degradation)

SMILES: COc1ccc2c(c1)C(c1ccc(Cl)cc1)=N[C@@H](CC(=O)NCCc1ccc(B(O)O)cc1)c1nnc(C)n1-2 [BRD-E14, (4-(2-(2-((4S)-6-(4-chlorophenyl)-8-methoxy-1-methyl-4H-benzo[f][1,2,4]triazolo[4,3-a][1,4]diazepin-4-yl)acetamido)ethyl)phenyl)boronic acid]
- Degradation of BRD4, combination with CRBN ligand [drawing 421]: ✓ (A black check mark indicates efficacy of 30% to 70% or higher protein degradation)
- Degradation of BRD4, combination with MDM2 ligand [drawing 431]: ✓ (A black check mark indicates efficacy of 30% to 70% or higher protein degradation)
- Degradation of BRD4, combination with VHL ligand [drawing 442] (Table 3): ✓ (A black check mark indicates efficacy of 30% to 70% or higher protein degradation)

SMILES: COc1ccc2c(c1)C(c1ccc(Cl)cc1)=N[C@@H](CC(=O)NCCNC(=O)Cc1ccc(B(O)O)cc1)c1nnc(C)n1-2 [BRD-E27, (4-(2-((2-(2-((4S)-6-(4-chlorophenyl)-8-methoxy-1-methyl-4H-benzo[f][1,2,4]triazolo[4,3-a][1,4]diazepin-4-yl)acetamido)ethyl)amino)-2-oxoethyl)phenyl)boronic acid]
- Degradation of BRD4, combination with CRBN ligand [drawing 421]: ✓ (A black check mark indicates efficacy of 30% to 70% or higher protein degradation)

SMILES: COc1ccc2c(c1)C(c1ccc(Cl)cc1)=N[C@@H](CC(=O)NCCNC(=O)Cc1cccc(B(O)O)c1)c1nnc(C)n1-2 [BRD-E38]
- Degradation of BRD4, combination with CRBN ligand [drawing 421]: ✓ (A black check mark indicates efficacy of 30% to 70% or higher protein degradation)

SMILES: CCNC(=O)C[C@@H]1N=C(c2ccc(Cl)cc2)c2cc(OCCOCCNC(=O)c3ccc(B(O)O)cc3)ccc2-n2c(C)nnc21 [BRD-E39]
- Degradation of BRD4, combination with CRBN ligand [drawing 397]: ✓ (A black check mark indicates efficacy of 30% to 70% or higher protein degradation)

SMILES: CCNC(=O)C[C@@H]1N=C(c2ccc(Cl)cc2)c2cc(OCCOCCOCCNC(=O)c3cccc(B(O)O)c3)ccc2-n2c(C)nnc21 [BRD-E42]
- Degradation of BRD4, combination with CRBN ligand [drawing 421]: ✓ (A black check mark indicates efficacy of 30% to 70% or higher protein degradation)

SMILES: CCNC(=O)C[C@@H]1N=C(c2ccc(Cl)cc2)c2cc(OCCOCCOCCOCCNC(=O)c3ccc(B(O)O)cc3)ccc2-n2c(C)nnc21 [BRD-E43]
- Degradation of BRD4, combination with CRBN ligand [drawing 421]: ✓ (A black check mark indicates efficacy of 30% to 70% or higher protein degradation)
- Degradation of BRD4, combination with CRBN ligand [drawing 422]: ✓ (A black check mark indicates efficacy of 30% to 70% or higher protein degradation)

SMILES: COc1ccc2c(c1)C(c1ccc(Cl)cc1)=N[C@@H](CC(=O)NCCOCCOCCNC(=O)c1ccc(B(O)O)cc1)c1nnc(C)n1-2 [BRD-E45]
- Degradation of BRD4, combination with CRBN ligand [drawing 422]: ✓ (A black check mark indicates efficacy of 30% to 70% or higher protein degradation)
- Degradation of BRD4, combination with VHL ligand [drawing 442] (Table 3): ✓ (A black check mark indicates efficacy of 30% to 70% or higher protein degradation)

SMILES: CCNC(=O)C[C@@H]1N=C(c2ccc(SCc3ccc(B(O)O)cc3)cc2)c2cc(OC)ccc2-n2c(C)nnc21 [BRD-E54]
- Degradation of BRD4, combination with VHL ligand [drawing 442] (Table 3): ✓ (A black check mark indicates efficacy of 30% to 70% or higher protein degradation)

SMILES: COc1ccc2c(c1)C(c1ccc(Cl)cc1)=N[C@@H](CC(=O)Nc1ccc(B(O)O)cc1)c1nnc(C)n1-2 [BRD-E74, (4-(2-((4S)-6-(4-chlorophenyl)-8-methoxy-1-methyl-4H-benzo[f][1,2,4]triazolo[4,3-a][1,4]diazepin-4-yl)acetamido)phenyl)boronic acid]
- Degradation of BRD4, combination with CRBN ligand [drawing 397]: ✓ (A black check mark indicates efficacy of 30% to 70% or higher protein degradation)
- Degradation of BRD4, combination with MDM2 ligand [drawing 431]: ✓ (A black check mark indicates efficacy of 30% to 70% or higher protein degradation)

SMILES: COc1ccc2c(c1)C(c1ccc(Cl)cc1)=N[C@@H](CC(=O)NCCNC(=O)c1ccc(O)c(O)c1)c1nnc(C)n1-2 [BRD-N01]
- Degradation of BRD4, combination with CRBN ligand [drawing 457]: ✓ (A black check mark indicates efficacy of 30% to 70% or higher protein degradation)

SMILES: COc1ccc2c(c1)C(c1ccc(Cl)cc1)=N[C@@H](CC(=O)NCCCCNC(=O)c1ccc(O)c(O)c1)c1nnc(C)n1-2 [BRD-N05]
- Degradation of BRD4, combination with CRBN ligand [drawing 457]: ✓ (A black check mark indicates efficacy of 30% to 70% or higher protein degradation)

SMILES: COc1ccc2c(c1)C(c1ccc(Cl)cc1)=N[C@@H](CC(=O)NCCCCNC(=O)c1cccc(O)c1O)c1nnc(C)n1-2 [BRD-N06]
- Degradation of BRD4, combination with CRBN ligand [drawing 457]: ✓ (A black check mark indicates efficacy of 30% to 70% or higher protein degradation)
